Results as given in ChEMBL document CHEMBL1136782, “Further studies on 2,4-diamino-5-(2',5'-disubstituted benzyl)pyrimidines as potent and selective inhibitors of dihydrofolate reductases from three major opportunistic pathogens of AIDS” (J Med Chem, 2003).

What was measured:
Dihydrofolate reductase [1] = biological target: T1, Dihydrofolate reductase (Mycobacterium avium, UniProt O30463)
T1 sequence (O30463 whole entry): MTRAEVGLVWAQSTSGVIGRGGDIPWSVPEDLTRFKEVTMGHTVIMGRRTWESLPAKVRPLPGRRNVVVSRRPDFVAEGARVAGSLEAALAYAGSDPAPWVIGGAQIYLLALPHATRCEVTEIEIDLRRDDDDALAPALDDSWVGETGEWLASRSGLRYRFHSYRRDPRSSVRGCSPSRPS
Description: Inhibition of Dihydrohydrofolate reductase(DHFR) of Mycobacterium avium

[2] = biological target: T2, Bifunctional dihydrofolate reductase-thymidylate synthase (Toxoplasma gondii, UniProt Q07422)
T2 sequence (Q07422 whole entry): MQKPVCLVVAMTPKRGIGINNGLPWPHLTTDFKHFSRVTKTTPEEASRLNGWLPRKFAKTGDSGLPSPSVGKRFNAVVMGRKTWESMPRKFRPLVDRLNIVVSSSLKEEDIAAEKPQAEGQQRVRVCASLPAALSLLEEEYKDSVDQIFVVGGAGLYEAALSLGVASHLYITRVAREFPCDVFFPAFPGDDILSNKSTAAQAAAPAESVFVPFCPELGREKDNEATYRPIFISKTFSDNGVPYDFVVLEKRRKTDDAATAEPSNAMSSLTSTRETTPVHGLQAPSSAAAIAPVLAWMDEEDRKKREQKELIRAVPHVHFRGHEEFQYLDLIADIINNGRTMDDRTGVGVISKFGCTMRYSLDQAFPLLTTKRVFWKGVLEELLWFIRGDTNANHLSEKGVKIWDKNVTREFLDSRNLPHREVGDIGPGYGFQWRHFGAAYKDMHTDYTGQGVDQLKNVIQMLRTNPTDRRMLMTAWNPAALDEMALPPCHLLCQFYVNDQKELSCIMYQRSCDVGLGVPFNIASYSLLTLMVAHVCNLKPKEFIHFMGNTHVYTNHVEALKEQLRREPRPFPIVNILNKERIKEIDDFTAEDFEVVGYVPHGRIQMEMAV
Description: Inhibitory activity against Dihydrohydrofolate reductase(DHFR) of Toxoplasma gondii

Dihydrofolate reductase [3] = biological target: T3, Dihydrofolate reductase (Rattus norvegicus, UniProt Q920D2)
T3 sequence (Q920D2 whole entry): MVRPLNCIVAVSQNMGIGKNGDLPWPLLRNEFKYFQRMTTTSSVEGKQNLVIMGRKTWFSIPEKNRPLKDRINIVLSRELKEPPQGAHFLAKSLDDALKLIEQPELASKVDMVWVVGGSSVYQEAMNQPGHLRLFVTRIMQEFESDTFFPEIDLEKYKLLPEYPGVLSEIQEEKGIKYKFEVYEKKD
Description: Inhibitory activity against Dihydrohydrofolate reductase (DHFR) of rat

[4] = Relative affinity for Dihydrofolate reductase of rat liver and Mycobacterium avium

Structure (SMILES)	IC50 [2] [nM]	other results
COc1ccc(C#CCCCC(=O)O)cc1Cc1cnc(N)nc1N		IC50 (Dihydrofolate reductase [1]): 7.8 nM
Nc1nc(N)c2nc(CCSc3ccccc3)cnc2n1	770	
Nc1nc(N)c2nc(C(=O)c3ccccc3)c(-c3ccccc3)nc2n1	860	
COc1ccc(OCCCC(=O)O)cc1Cc1cnc(N)nc1N		IC50 (Dihydrofolate reductase [3]): 2700 nM
Nc1nc(N)c2c(CNc3cccc4c3CCCC4)c[nH]c2n1	1100	
Cc1cccc(-c2nc3c(N)nc(N)nc3nc2N)c1	18	
Nc1nc(N)c2nc(-c3ccccc3)c(-c3ccccc3)nc2n1	240	
COc1cc(Cc2cnc(N)nc2N)cc(OC)c1-n1cccc1	470	
COc1ccc(C#CCOc2ccccc2C(=O)O)cc1Cc1cnc(N)nc1N		Selectivity index [4]: 170
